Values joined by “and” are separate entries in the source; they are usually repeats but may differ in a detail not shown here. Equal values may be shown once. Read-outs that look alike come from different tables or passages of the source.
Key:
[1] = test system: patients with major depressive disorder; assay: Phase 2a cardiodynamic ECG evaluation (concentration-QTc and by-time point analysis); assay type: in vivo, human
Experimental: (§1) Timed PK assessments were performed on Day 1 and after approximately 23 hours post Day 1 dosing, and thus for the exposure-response analysis only the Day 1 ECG data is utilized.
The 12-lead digital ECG equipment was supplied and supported by the central ECG core lab vendor, eResearch Technology, Inc., ERT (Philadelphia, PA). After a supine rest period, ECGs were collected in triplicate at the pre-specific time points indicated within the study protocol and described below.
Twelve-lead ECGs were to be performed in triplicate approximately 1 minute apart after lying quietly for at least 3 min at: • Screening • Check-in (Day—1) • Day 1: 1 hour pre-dose and 2 hours, 4 hours, 6 hours, and 8 hours post-dose on Day 1 • Day 2: 1 hour pre-dose (corresponding to 23 hours post-dose on Day 1) and 2 hours, 4 hours, 6 hours, and 8 hours post-dose • Days 3-7: 2 hours post-dose • Day 8 • Prior to discharge on Day 9 • End of the observation period (Day 14)
The QT and RR value for each measured beat were used for HR correction. Three beats were measured on each of the triplicate ECGs at each time point. The mean value from each triplicate tracing was calculated, and then the mean of all available measurements from a nominal time point were used as the patient's reportable value at that time point. • 5. ECG Methodology: Central Laboratory
[published correction appears in J Pharmacokinet Pharmacodyn. […] J Pharmacokinet Pharmacodyn. […] In all calculations, concentrations in patients who received placebo were set to zero.
(§2) The geometric mean of the individual Cmax values for patients in each of the active dose groups was determined.
An unstructured covariance matrix was specified for the repeated measures at post-dose time points within patient.

[2] = test system: healthy volunteers; assay: Phase 1 study esmethadone-112 concentration-QTc sub-analysis; assay type: in vivo, human
[3] = Phase 1 pharmacokinetics of immediate release esmethadone (Bernstein 2019); assay type: in vivo; conditions: human, plasma; 25 mg oral daily dosing ×10 days; read-out: Steady state Cmax
Experimental: […]. […] Therefore, dose proportionality and linearity after oral administration of each of the three molecules, based on the data from Bernstein 2019 and Foster 2004 are expected. […].
Steady state Curough concentrations (measured at Day 10) were 142.7, 326.2 and 338.8 ng/ml respectively.

[4] = Phase 2a study plasma pharmacokinetics; assay type: in vivo, human; conditions: for Cmax: human, in vivo, C-QTc population
Experimental: as §1
PK sampling was done on Day 1 at 1 hour pre-dose and 0.5, 1, 2, 4, 6, 8, and 12 hours post-dose. On Day 2 through Day 7, sampling was done 1 hour pre-dose. On Day 8, sampling was done approximately 24 hours after the last dose of study drug (on Day 7). On Day 9, sampling was done approximately 48 hours after the last dose (on Day 7).
as §2

[5] = cited from earlier work
[6] = biological target: hERG (Homo sapiens, UniProt Q12809); assay: GLP hERG channel current study of esmethadone; conditions: human
[7] = biological target: hERG (human ether-à-go-go-related gene) channel current (Homo sapiens, UniProt Q12809); assay: GLP hERG channel current study of esmethadone
[8] = linear mixed-effects model, C-QTc population

Sequence of hERG (Q12809 whole entry): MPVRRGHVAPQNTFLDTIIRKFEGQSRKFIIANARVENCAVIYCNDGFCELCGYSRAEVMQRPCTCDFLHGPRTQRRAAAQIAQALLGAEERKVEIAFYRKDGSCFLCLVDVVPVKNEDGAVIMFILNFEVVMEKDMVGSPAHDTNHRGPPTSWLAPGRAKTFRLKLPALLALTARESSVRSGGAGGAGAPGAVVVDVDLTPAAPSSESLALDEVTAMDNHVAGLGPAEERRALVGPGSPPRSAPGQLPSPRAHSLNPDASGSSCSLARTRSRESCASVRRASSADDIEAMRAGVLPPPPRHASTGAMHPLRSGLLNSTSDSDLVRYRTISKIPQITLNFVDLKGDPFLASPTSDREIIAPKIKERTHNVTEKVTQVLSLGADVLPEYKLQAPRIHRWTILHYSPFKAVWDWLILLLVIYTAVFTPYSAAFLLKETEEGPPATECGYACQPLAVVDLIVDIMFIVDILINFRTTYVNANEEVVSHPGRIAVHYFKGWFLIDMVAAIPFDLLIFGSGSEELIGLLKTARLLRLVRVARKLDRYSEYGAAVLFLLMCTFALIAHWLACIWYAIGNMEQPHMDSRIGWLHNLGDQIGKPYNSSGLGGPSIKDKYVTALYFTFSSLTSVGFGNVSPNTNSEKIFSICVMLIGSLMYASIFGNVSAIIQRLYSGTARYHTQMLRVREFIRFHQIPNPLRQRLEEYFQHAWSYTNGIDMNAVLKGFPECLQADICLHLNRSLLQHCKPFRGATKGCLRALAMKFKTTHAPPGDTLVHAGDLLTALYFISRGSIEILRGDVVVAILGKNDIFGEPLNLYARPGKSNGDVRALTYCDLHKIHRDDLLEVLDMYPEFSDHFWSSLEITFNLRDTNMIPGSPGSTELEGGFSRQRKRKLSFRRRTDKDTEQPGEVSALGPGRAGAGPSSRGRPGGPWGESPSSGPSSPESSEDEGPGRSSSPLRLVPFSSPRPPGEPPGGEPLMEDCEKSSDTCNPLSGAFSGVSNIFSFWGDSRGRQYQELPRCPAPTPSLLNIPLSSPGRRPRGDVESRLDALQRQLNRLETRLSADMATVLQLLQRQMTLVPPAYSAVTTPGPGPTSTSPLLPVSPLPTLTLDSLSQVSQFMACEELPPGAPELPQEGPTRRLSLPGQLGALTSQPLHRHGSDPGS
Sequence of hERG (human ether-à-go-go-related gene) channel current (Q12809 whole entry): as above

CCC(=O)C(C[C@H](C)N(C)C)(c1ccccc1)c1ccccc1 [esmethadone]
Model-predicted ΔΔQTcF at 10 ms Threshold concentration ([1]; 300 ng/ml, linear model, (90% CI)): 7.18 (4.36, 10.00) ms
Model-predicted ΔΔQTcF at geometric mean Cmax ([1]; 25 mg QD group after 75 mg loading dose, 265.2 ng/mL, linear model, (90% CI)): 6.7 ms and 6.71 ms and 6.71 (3.94, 9.48) ms
Maximum LS mean ΔΔQTcF, by-time point analysis ([1]; 25 mg dose group (75 mg loading), Day 2 pre-dose time point): 7.7 ms
Model-predicted ΔΔQTcF at geometric mean Cmax ([1]; 50 mg QD group after 100 mg loading dose, 337.8 ng/mL, linear model, (90% CI)): 7.7 ms and 7.69 ms and 7.69 (4.80, 10.58) ms
Maximum LS mean ΔΔQTcF, by-time point analysis ([1]; 50 mg dose group (100 mg loading), Day 1, 8 hour time point): 10.9 ms
Slope of the concentration-QTc relationship (esmethadone Slope) [1, 8]: 0.014 ms per ng/mL
Treatment effect-specific intercept (Treatment Effect) [1, 8]: 3.11 ms
ECG morphology changes ([1]; studied doses): no clinically significant ECG morphology changes
Effect on QTc ([1]; studied doses): modest, dose-dependent increase in QTc
Effect on heart rate, PR, or QRS ([1]; studied doses): no clinically significant effect
Effect on HR ([2]; Day 10): mild HR slowing
Peak ΔΔQTcF, time-based central tendency analysis ([2]; Day 10, 25 mg cohort): 11.5 ms
Peak ΔΔQTcF, time-based central tendency analysis ([2]; Day 10, 50 mg QD cohort): 26.8 ms
Peak ΔΔQTcF, time-based central tendency analysis ([2]; Day 10, 75 mg QD cohort): 28.8 ms
Subjects with pronounced QTcF prolongation (QTcF>60 ms or absolute QTcF>480 ms) ([2]; categorical analysis, any treatment group): no subjects
Effects on the PR or QRS intervals ([2]; in vivo): no clinically meaningful effects
Cmax [3]: 273 ng/mL
Highest PK values on Day 1 ([4]; 25 mg (75 mg Day 1)): 254.5 ng/mL
Highest PK values on Day 1 ([4]; 50 mg (100 mg Day 1)): 343.9 ng/mL
Cmax ([4]; 25 mg QD group, Day 1 after 75 mg loading dose): 265 ng/mL
Cmax ([4]; 50 mg QD group, Day 1 after 100 mg loading dose): 338 ng/mL
Steady state Ctrough concentration (Day 10) ([5]; 25 mg): 142.7 ng/mL
Steady state Ctrough concentration (Day 10) ([5]; 50 mg): 326.2 ng/mL
Steady state Ctrough concentration (Day 10) ([5]; 75 mg): 338.8 ng/mL
inhibition at 0.3 µM [6]: 27.3 ± 1.6%
inhibition at 1 µM [6]: 48.8 ± 3.4%
inhibition at 3 μM [6]: 68.6 ± 0.3%
inhibition at 10 µM [6]: 88.6 ± 0.7%
IC50 [7]: 1 µM
Hill coefficient ([7]; GLP study): 0.8
